Values of other authors in patent US20140296485A1, “ANIONIC DISPLACER MOLECULES FOR HYDROPHOBIC DISPLACEMENT CHROMATOGRAPHY” (SACHEM, INC., priority 2011, published 2014).

Details: pH-buffering compounds

pKa of pH buffer | Structure (SMILES)
5.9 | CC(C)(CC(=O)O)CC(=O)O [3,3-dimethylglutaric acid]
5.2 | O=C(O)CCC(=O)O [succinic acid]
